{"source": "ChEMBL document CHEMBL5108051", "about": "“Improving the Antimicrobial Performance of Amphiphilic Cationic Antimicrobial Peptides Using Glutamic Acid Full-Scan and Positive Charge Compensation Strategies” (J Med Chem, 2022)", "key": {"Escherichia coli [1]": {"system": "Escherichia coli", "assay": "Bactericidal activity against Escherichia coli ATCC 25922 at 2 times MIC measured after 3 hrs by time-killing kinetics assay", "type": "functional"}, "Escherichia coli [2]": {"system": "Escherichia coli", "assay": "Disruption of membrane integrity in Escherichia coli ATCC 25922 assessed as increase in nucleic acid leakage by measuring PI-uptake level by microplate reader assay", "type": "functional, organism-based"}, "Escherichia coli [3]": {"system": "Escherichia coli", "assay": "Antimicrobial activity against Escherichia coli ATCC 25922 assessed as reduction in survival rate in presence of >= 0.02 microg/ml of chymotrypsin measured after 6 hrs", "type": "functional, organism-based"}, "[4]": {"assay": "Acute toxicity in BALB/c mouse liver assessed as infiltration of inflammatory cells at 10 to 40 mg/kg, ip administered as single dose measured for 7 days by H and E staining method", "type": "organism-based", "conditions": "in vivo, 168 h, dose 10-40 mg/kg, time 7 day"}}, "note": "Activity calls are given as the source filed them. The rule behind the calls is not given here. Bridge positions count the residues as written; N and C are the ends. Square brackets hold non-standard residues; d marks the D form. Peptide text beside a SMILES is read from it. * marks the point of attachment. X1 = CC[C@H](C)CCCCC(=O)*; Dab = NCC[C@H](N)C(=O)O", "data": [{"compound": "CC[C@H](C)[C@H](NC(=O)[C@@H]1CCCN1C(=O)[C@H](CC(C)C)NC(=O)[C@@H](N)Cc1ccccc1)C(=O)N[C@H](C(=O)N[C@@H](C)C(=O)N[C@@H](CCCCN)C(=O)N[C@@H](CC(C)C)C(=O)N[C@@H](CC(C)C)C(=O)N[C@@H](CO)C(=O)NCC(=O)N[C@@H](CC(C)C)C(=O)N[C@@H](CC(C)C)C(N)=O)C(C)C", "note": "(H-FLPIVAKLLSGLL-NH2)", "values": [{"measurement": "Activity", "setting": "Escherichia coli [1]", "result": 100, "unit": "%"}]}, {"compound": "CC(C)C[C@H](NC(=O)[C@H](CC(C)C)NC(=O)[C@H](CCC(=O)O)NC(=O)[C@H](CCCCN)NC(=O)[C@H](CC(C)C)NC(=O)[C@H](CC(C)C)NC(=O)[C@H](CCCCN)NC(=O)[C@H](C)NC(=O)[C@@H](NC(=O)[C@H](CCCCN)NC(=O)[C@@H]1CCCN1C(=O)[C@H](CC(C)C)NC(=O)[C@@H](N)Cc1ccccc1)C(C)C)C(N)=O", "note": "(H-FLPKVAKLLKELL-NH2)", "values": [{"measurement": "Activity", "setting": "Escherichia coli [2]", "result": "Active"}]}, {"compound": "CC[C@H](C)CCCCC(=O)N[C@@H](CCN)C(=O)N[C@H](C(=O)N[C@@H](CCN)C(=O)N[C@H]1CCNC(=O)[C@H]([C@@H](C)O)NC(=O)[C@H](CCN)NC(=O)[C@H](CCN)NC(=O)[C@H](CC(C)C)NC(=O)[C@@H](Cc2ccccc2)NC(=O)[C@H](CCN)NC1=O)[C@@H](C)O", "note": "(X1-[Dab]T[Dab][Dab][Dab][dF]L[Dab][Dab]T; lactam 4-C)", "values": [{"measurement": "Activity", "setting": "Escherichia coli [3]", "result": "Active"}, {"measurement": "Activity", "setting": "[4]", "result": "Non-Toxic"}]}]}
